Test results from patent US10500388B2 (priority 2005, dated 2019).
Like-named read-outs stand apart in the source and are kept apart here.

Key:
E coli = format: cell-based, Escherichia coli
Source text: A suitable method is the serial plate transfer test (SPTT) (Bayston R. Grove N, Siegel J, Lawellin D, Barsham S. Prevention of hydrocephalus shunt catheter colonisation in vitro by impregnation with antimicrobials. J Neurol Neurosurg Psychiatr 1989, 52: 605-689) which allows for a portion of an antimicrobial material, typically a catheter segment of approximately 5 mm length, to be placed on the surface of an agar plate seeded with susceptible index bacteria in such a way that the cut ends of the test catheter are not in contact with the eluting surface, by means of a well or other arrangement.
Wound guards (e.g. for protection of catheter or external fixation pin exit sites) in the form of discs of silicone elastomer of 2.5 cm diameter and 3.5 mm thickness were impregnated with either rifampin+clindamycin (A), rifampin+clindamycin+triclosan (B) or triclosan alone (C). […] After overnight incubation, inhibition zones were measured and the discs were transferred to a further seeded plate, and this process repeated until no zones were seen. Any bacterial colonies growing inside the inhibition zones or under the discs were tested for minimal inhibitory concentration (MIC) to triclosan and their identities with the original inoculum determined by pulse field gel electrophoresis. […]

S. aureus = test: MIC of triclosan for inoculum and for colonies growing inside zones or under discs; format: cell-based; conditions: Staphylococcus aureus
Experimental: (§1) Wound guards (e.g. for protection of catheter or external fixation pin exit sites) in the form of discs of silicone elastomer of 2.5 cm diameter and 3.5 mm thickness were impregnated with either rifampin+clindamycin (A), rifampin+clindamycin+triclosan (B) or triclosan alone (C). The discs were then sterilised by autoclaving, and placed on agar plates seeded with the gram-positive bacteria Staphylococcus aureus. After overnight incubation, inhibition zones were measured and the discs were transferred to a further seeded plate, and this process repeated until no zones were seen. Any bacterial colonies growing inside the inhibition zones or under the discs were tested for minimal inhibitory concentration (MIC) to triclosan and their identities with the original inoculum determined by pulse field gel electrophoresis.

E. coli = test: as above; format: cell-based; conditions: Escherichia coli
Experimental: as §1, with “electrophoresis. The results were as follows:” for “electrophoresis.”
The simulation was repeated using plates seeded with the gram-negative bacterium E coli.

[1] = read-out: MIC of triclosan for resistant mutants

For CO[C@H]1/C=C/O[C@@]2(C)Oc3c(C)c(O)c4c(O)c(c(/C=N/N5CCN(C)CC5)c(O)c4c3C2=O)NC(=O)/C(C)=C\C=C\[C@H](C)[C@H](O)[C@@H](C)[C@@H](O)[C@@H](C)[C@H](OC(C)=O)[C@@H]1C [Rifampin, 2-(4-methyl-1-piperazinyl-iminomethyl)-rifamycin SV], the “Activity against E. coli” value (E coli) was “no activity”.

Oc1cc(Cl)ccc1Oc1ccc(Cl)cc1Cl [Triclosan] gave an MIC (S. aureus; [1]) of 125 µg/mL, an MIC (S. aureus; S. aureus original inoculum, read-out: MIC of triclosan for inoculum) of 3.75 µg/mL and an MIC (E. coli; read-out: MIC of triclosan for inoculum) of 16 µg/mL. For the same compound, the MIC (E. coli; [1]) was 250 µg/mL.

With CCC[C@@H]1C[C@@H](C(=O)N[C@@H]([C@H]2O[C@H](SC)[C@H](O)[C@@H](O)[C@H]2O)[C@H](C)Cl)N(C)C1 [clindamycin] the “Activity against E. coli” value (E coli) was “no activity”.
